Experimental data as given in publication PMC11403612, “Preparation and Preclinical Characterization of a Simple Ester for Dual Exogenous Supply of Lactate and Beta-hydroxybutyrate” (Journal of Agricultural and Food Chemistry, 2024).

How the values were obtained:
[1] = Microsomal stability of LaKe, human; assay type: in vitro ADME
Experimental: The in vitro stability of LaKe was evaluated following incubation in simulated gastric fluid (SGF), simulated intestinal fluid (SIF), fresh and frozen plasma (rats and humans, respectively), and the presence of hepatocytes (rats and humans) and liver microsomes (rats and humans). At the chosen time points, the mixtures were analyzed by LC-MS/MS to quantify the remaining LaKe and all assays included at least one control compound with known pharmacokinetic properties.
Hepatocyte stability of LaKe
Cells: Rat hepatocytes (BioreclamationIVT, M0005); Human hepatocytes (BioreclamationIVT, X008001) Thawing Medium: Williams’ Medium E containing 5% fetal bovine serum and 30% Percoll solution and other […]
Incubation Medium: Williams’ Medium E (no phenol red) containing 2 mM L-Glutamine and 25 mM HEPES.
Stop Solution: Acetonitrile containing 200 ng/mL tolbutamide and labetalol as internal standards.
Dilution Solution: Ultra-pure water.
Preparation of Quenching Plate: Transfer 125 μL of stop solution (acetonitrile containing 200 ng/mL tolbutamide and 200 ng/mL labetalol as internal standards) in a set of pre-labeled 96-well plates.
Cryopreserved cells were thawed, isolated and suspended in Incubation Medium, then diluted with pre-warmed Incubation Medium to 0.5 × 10^6 cells/mL. 198 μL of pre-warmed cell suspensions were added in 96-well plates. […]

blood glucose = assay: Blood glucose in extended pharmacokinetics study; assay type: in vivo, SD rats; settings: high-dose LaKe exposure; continuous ingestion of 5% glucose water
Experimental: Animals (SD rats, both male and female, 7–9 weeks) were individually housed from 24 h before dosing until the end of the study. Food was withdrawn the night before initiation of study; following food withdrawal, animals were maintained on glucose water containing 5% w/v glucose and 1% saline to suppress endogenous ketone production throughout the study. Food was returned 8 h post-test article dosing. Animals were monitored for distress or notable changes in behavior during the study. The animals were euthanized by CO2 inhalation 2 h after the last sample collection time point.
Blood collection was performed by jugular vein cannulation of each animal and divided into two parts. About 10–15 μL of blood was used for the analysis of glucose by glucometer measurement. About 0.20 mL of blood was collected into prechilled commercial EDTA-K2 tubes containing 5 μL of the esterase inhibitor (100 mM PMSF in ethanol, 40 mg/mL NaF and 120 mg/mL […] in water = 5:95(v/v). All blood samples were placed on wet ice until centrifugation.

## CC(O)CCOC(=O)C(C)O (stereo not drawn) [LaKe, 3-hydroxybutyl 2-hydroxypropanoate]
[1]; human liver microsomes, absence of NADPH, after 60 min
  LaKe remaining: 82%
[1]; presence of NADPH
  turnover in liver microsomes: underwent turnover
Blood glucose
  blood glucose: nonsignificant trend toward lower glucose levels
